Earlier results as cited in patent US20060239954A1, “Antimicrobial spray for use on pets” (priority 2005, published 2006).

How the values were obtained:
Conditions in all cases: 0.1% aqueous solution
Escherichia coli = test system: Escherichia coli
Pseudomonas aeruginosa = test system: Pseudomonas aeruginosa
Staphylococcus aureus = test system: Staphylococcus aureus

N=C(NCCCCCCNC(=N)NC(=N)Nc1ccc(Cl)cc1)NC(=N)Nc1ccc(Cl)cc1.O=C(O)[C@H](O)[C@@H](O)[C@H](O)[C@H](O)CO.O=C(O)[C@H](O)[C@@H](O)[C@H](O)[C@H](O)CO [Chlorhexidine gluconate, chlorhexidine gluconate]
bactericidal: bactericidal against Escherichia coli (Escherichia coli) | bactericidal against Pseudomonas aeruginosa (Pseudomonas aeruginosa) | bactericidal against Staphylococcus aureus (Staphylococcus aureus)
